Data: patent publication US20250145946A1, “GENERATION OF PURE RETINAL CELLS FROM HUMAN PLURIPOTENT STEM CELLS” (Wisconsin Alumni Research Foundation, priority 2023, published 2025)

Assays:
[1] = system: H9 human embryonic stem cells (hESCs); experiment: qPCR analysis of neural and retinal gene expression during hPSC neural/retina differentiation; type: cell-based
Experimental: hPSCs (H9, IMR-90-4 and WC30) were maintained under E8/feeder-free culture condition and passaged at 1:20 ratio with Rock inhibitor. After each new passage, the cells were fed with E8 medium for another 1˜2 days to reach 30-40% confluence. To initiate retina differentiation, culture medium was replaced with Retina Induction Medium (RIM) containing Neural induction medium (NIM) comprising DMEM/F12 media containing 1% N2 and 1× nonessential amino acids (NEAA) supplemented with 10 μM SB431542 (TGF inhibitor, Stemgent, 04-0010-10); this new passage day was counted as day 0 (DO) of retina differentiation. Cells were then fed daily with RIM, or every other day based on the cell density. On day 4, the cells were dissociated by ReLeSR (STEM CELL) or EDTA and re-suspended in the fresh RIM containing 0.5 micromolar (μM) Rock inhibitor. Cell clusters were thereafter transferred to a cell culture flask and cultured in suspension. On day 5, the resulting cell spheres were fed with RIM without SB431542. […] At day 20, the spheres were cultured in Transition medium (DMEM/F12: Neurobasal (1:1) with 1% N2, 2% B27, 1×NEAA and 1×Glutamax) until analysis.
Total RNA was isolated with the RNeasy Plus Mini Kit according to the manufacturer's instructions. For quantitative PCR (qPCR), cDNA was synthesized using PrimeScript RT Reagent Kit (Takara). qPCR was performed using iTaq Universal SYBR Green Supermix (Bio-Rad). GAPDH gene was used as an internal control to equalize cDNA.
H9 human embryonic stem cells (hESCs) were differentiated to neuroepithelia by culture in chemically defined media as disclosed above and then treated with inhibitors against BMP (DMH1), TGF-beta (SB-431542, SB), or WNT (IWR1) pathways separately for 6 days during the neural induction process (FIG. 2a).
Because SOX1 expression was known to be absent in retinal progenitors (also shown in FIG. 7a), expression of SOX2 and SOX1 presented a simple determining marker for cortical vs. retinal progenitors.

[2] = system: H9 human embryonic stem cells (hESCs); experiment: Flow cytometry of differentiating cells for SOX2, SOX1 and PAX6; type: cell-based; conditions: day 12; FIG. 8a
Experimental: Flow cytometry was performed following manufacturer's instruction using Transcription Factor Buffer Set which is designed for transcription factor staining. Briefly, single cells were prepared using TrypLE Express Enzyme and fixed in the fixation buffer provided in the kit at 2-8° C. for 45 min. After 3 washings with the permeable buffer, the primary antibodies were added to cells for 45 min at 2-8° C. in a light-tight box. The cells were washed 3 times before incubation with fluorescently conjugated secondary antibodies for 45 mins at 2-8° C. in a light-tight box. After 3 times of washing, cells were suspended in the washing buffer and analyzed by flow cytometry (BD LSR or BD LSRII). Data analysis was performed using FlowJo. Antibodies used were: SOX2 (R&D Systems AF2018), SOX1 (R&D Systems AF3369), PAX6 Alexa Fluor 488 (BD Biosciences Cat #561664), SOX2-V450 (BD Biosciences Cat #561610), SOX1-PE (BD Biosciences Cat #561592), PAX6 (Covance Cat #PRB-278P), VSX2 (Exalpha, Cat #X1180P), CRX (Abnova, Cat #H00001406-M02), OPSIN (MilliporeSigma, Cat #AB5407). Due to the lack of retinal differentiation resulting from BMP inhibition, expression of retina genes was examined at multiple time points in SB and SB plus dorsomorphin homolog 1 (SB+DMH1), which was a well-established dual-SMAD inhibition condition for neural conversion (Chambers, S. M. et al., 2009, Nat Biotechnol 27:275-280). […]

hPSCs = experiment: Single nucleus RNA-seq (snRNA-Seq) profiling of differentiating cells; type: cell-based, human; conditions: day 12
Experimental: Differentiating cells at multiple time points (day 0-day 12) indicated below were digested and collected for nucleus isolation and library construction (Tao et al., 2024, Nat. Biotech. 12:1404-1416; https://doi.org/10.1038/s41587-023-01977-4). All libraries prepared in this way were processed by NovaSeq. Alignment of raw sequencing reads, and generation of feature barcode matrices were performed using Cellranger (7.1.0). Seurat (4.1.3) was used to process feature barcode matrices and analyze snRNA-Seq data32. All samples were processed under standard quality control metrics. Single cells with more than 300 unique genes (nFeature) and less than 15% or 20% mitochondrial gene reads (percent.mt) were selected for follow-up analysis. Additional procedures were used to exclude low quality cells and doublets in each sample (nFeature<6,000 and nCount<20,000). […] After quality control, all snRNA-Seq data were normalized using the SCTransform (v2) function in Seurat with mitochondria genes regressed out (Choudhary, S. et al., 2022, Genome Biol 23, 27). PCA and UMAP reduction, gene feature plots were done by using Seurat as well.
Single nucleus RNA-seq (snRNA-Seq) assays were performed to profile and compare the differentiating cells under the SB or SB+DMH1 conditions (FIG. 2d). On day 6, after filtering low quality and dead cells, 8,533 and 9,756 cells in the SB and SB+DMH1 groups were collected, respectively. Uniform manifold approximation and projection (UMAP) clustering identified 11 clusters in both conditions (FIG. 2e).
To verify this observation, cells were differentiated with only SB for the first 6 days to generate primitive neuroepithelial cells and then how the BMP pathway regulated retinal differentiation was investigated by treating the cells with or without DMH1 at day 6 (FIG. 2d). Cell nuclei were collected on day 12 for snRNA-Seq to compare differentiating cells in the control (medium without inhibitors) and under DMH1 conditions. […] UMAP clustering identified 13 clusters (FIGS. 2h-2j, FIG. 10a).

[3] = inhibitor for 6 days during neural induction, qPCR, FIG. 2b
[4] = inhibitor for 6 days during neural induction, vs control, qPCR, FIG. 2b
[5] = SB day 0-5, then DMH1 from day 6, vs control

O=C(Nc1cccc2cccnc12)c1ccc(N2C(=O)[C@@H]3[C@H](C2=O)[C@@H]2C=C[C@H]3C2)cc1 [IWR1]
effect on retinal differentiation [1, 3]: did not have much effect

NC(=O)c1ccc(-c2nc(-c3ccc4c(c3)OCO4)c(-c3ccccn3)[nH]2)cc1 [SB]
expression of retinal lineage-specific markers RAX and VSX2 [1, 4]: highest expression level
expression of SOX1 (definitive neuroepithelial marker) [1, 3]: low expression
expression pattern of SOX1 over time ([1]; time course after day 6, SB condition vs BMP2 administration, FIG. 3c): increased steadily
SOX1 and SOX2 double positive cells (definitive neuroepithelial cells) [2]: 14%

CC(C)Oc1ccc(-c2cnc3c(-c4ccnc5ccccc45)cnn3c2)cc1 [DMH1]
expression of neural genes including PAX6 and SOX1 [1, 4]: efficiently induced
expression of retinal lineage-specific markers RAX and VSX2 [1, 4]: did not show much change
GLI3 expression (hPSCs; [5]): downregulated
MKI67 and NES expression levels in progenitor clusters (hPSCs; [5]): much lower
expression of EFTFs PAX6, LHX2, SIX3 and OTX2 (hPSCs; [5]): much lower or even absent
expression of BMP target genes ID1/2/4 (hPSCs; SB day 0-5, then DMH1 from day 6, FIG. 10b): much lower levels
